Like-named read-outs stand apart in the source and are kept apart here.
Legend:
[1] = molecular target: T1, HmuY (Porphyromonas gingivalis, UniProt A2I2W2, H134M); experiment: biochemical
[2] = molecular target: T1, HmuY; experiment: biochemical; remark: listed apart in the source

T1 sequence (A2I2W2 26-216 H134M): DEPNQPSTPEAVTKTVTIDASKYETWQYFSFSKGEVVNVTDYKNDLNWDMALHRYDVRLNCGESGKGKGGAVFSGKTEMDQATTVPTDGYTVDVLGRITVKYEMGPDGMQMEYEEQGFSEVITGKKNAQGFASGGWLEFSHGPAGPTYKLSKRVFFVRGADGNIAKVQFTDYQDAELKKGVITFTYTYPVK

Row | Compound | Kd [1] [µM] | Kd [2] [µM]
1 | C=CC1=C(C)C2=Cc3c(C=C)c(C)c4[n]3[Fe][n]3c(c(C)c(CCC(=O)O)c3=CC3=NC(=C4)C(C)=C3CCC(=O)O)=CC1=N2 [Fe(II)heme] | 0.011 | 
2 | C=CC1=C(C)C2=Cc3c(C=C)c(C)c4[n]3[Fe]([Cl])[n]3c(c(C)c(CCC(=O)O)c3=CC3=NC(=C4)C(C)=C3CCC(=O)O)=CC1=N2 [Fe(III)heme] |  | 12
